Experiments:
Type in all cases: physicochemical
[1] = Acetone content of the dried product by gas chromatography
Protocol: The acetone content or concentration of organic solvent may be determined in any suitable manner, e.g. by gas chromatography.
The acetone content of the dried product was analysed using a Hewlett-Packard Gas Chromatograph, model 5890. As a sample solution was used a solution obtained by dissolving 0.500 g of product in 10.0 ml of water (with the aid of some drops of NaOH 1 N). As a standard (reference) solution was used a solution obtained by dissolving 0.5 g of acetone standard in 50.0 ml of water, from which 1.0 ml was taken and diluted with 50.0 ml water.

[2] = Color C400 measured at 400 nm (Ph. Eur.); conditions: color measured at a wavelength of 400 nm
From the text: In a preferred embodiment, the product according to the invention has a C400≦0.20, wherein C400 is the color measured at a wavelength of 400 nm (Ph.Eur.). Preferably, the product has a C400≦0.15, preferably a C400≦0.10.

[3] = Water content (Karl Fisher) of the dried product; conditions: after drying
Protocol: The wet cake was fluidised with air at ambient temperature during 15 to 30 minutes, after which it was fluidised with warm air (30-40° C.) during 45 to 75 minutes (air flow 1800 m^3/hr), until the water content was 5.2 wt. % (Karl Fisher).
(product temperature 40° C.). The final pressure was 20 mbar. […] The water content was 5.2 wt. % (Karl Fisher).

Compound | Acetone content ([1]; dried cephalexin product) | Acetone content ([1]; dried product, fluid bed dryer) | C400 (Ph. Eur.) [2] | water content (Karl Fisher) [3]
CC1=C(C(=O)O)N2C(=O)[C@@H](NC(=O)[C@H](N)c3ccccc3)[C@H]2SC1 [Comparative experiment A, cephalexin] | 500 mg/kg | 500 mg of acetone per kg of cephalexin | 0.025 | 5.2 wt. %
CC1=C(C(=O)O)N2C(=O)[C@@H](NC(=O)[C@H](N)c3ccccc3)[C@H]2SC1.O [Example I, cephalexin] | 10 mg/kg | – | 0.026 | 5.2 wt. %

From patent US20080031955A1, “Product Comprising a Beta-Lactam Antibiotic” (priority 2004, published 2008)
